Measurements as given in patent publication US20240131356A1, “COMBINATION OF INTRACELLULAR AND EXTRACELLULAR PHOTOSENSITIZERS FOR TREATMENT OF BACTERIAL INFECTION” (priority 2021, published 2024).
pEC50: −log10 of the molar value. Read-outs that look alike come from different tables or passages of the source.

Test system: hrtAB promoter (HssRS activation; CgoX activation)
Assay: XylE colorimetric reporter assay (phrt.xylE), activation of HssRS / hrtAB expression
Type: cell-based, Staphylococcus aureus strain Newman
Conditions: for Specifc Activity @ 30 μM: 30 μM compound, XylE activity normalized to protein; for Specifc Activity @ 30 μM / Specifc Activity (nMol/min*mg), data collected at 10 uM: 6 h subculture; for Specifc Activity (nMol/min*mg), data collected at 10 uM: footnote a: data collected at 10 uM; for XylE activity in comparison to '8882 at 10 μM: six-hour exposure (FIG. 2A); for XylE activity in comparison to '8882 at 30 μM: six-hour exposure (FIG. 2B); for pEC50 / EC50: Staphylococcus aureus, NEWMAN; for EC50: read-out: logEC50 (converted); for XylE activity (ability to activate HssRS) in comparison to '8882: dose not stated
Procedure: To maximize the production of coproporphyrin III and thereby increase blue-light mediated killing of S. aureus, synthesized analogs of VU0038882 were tested. To determine the relative efficacy of each analog, a Newman strain of S. aureus, transformed with the phrt.xylE (11) reporter vector was used. This reporter allows for colorimetric assessment of intracellular heme production. To perform the assay, each individual analog was added to 3 mL of TSB+10 μg/mL chloramphenicol to reach a concentration of 30 μM, and then 700 μL of this newly made 30 μM solution was added to 1.3 mL of remaining TSB+10 μg/mL chloramphenicol media to create the 10 μM concentration. Either 10 μM or 30 μM concentrations of compounds in medium were then aliquoted into three 0.5 mL replicate tubes. Three separate 16- to 18-hour overnight subcultures from isolated colonies were back-diluted 1:100 into the tubes creating three biological replicates and were subcultured for 6 hours at 37° C. and 180 rpm. After incubation, the cells were pelleted at 16,400 g for 5 minutes and the supernatant aspirated before washing with 0.5 mL of 20 mM potassium phosphate wash buffer. After pelleting the cells again at 16,400 g for 5 minutes the wash buffer was aspirated, and the pellets were stored at −80° C. until further use.
When the cells were ready to be lysed and data collected, samples were removed from the −80° C. freezer, allowed to thaw, and resuspended in 150 μL of lysis buffer (100 mM potassium phosphate pH=8.0, 10% v/v acetone, 20 μg/mL lysostaphin) before incubation in a 37° C. bead bath for 20 minutes and then cooled for 5 minutes on ice. The samples were then centrifuged at 16,400 g and 4° C. for 30 minutes to separate the pellet from the lysate, which was then placed into a 96-well microtiter plate and kept on ice. The lysate from each sample was pipetted into 20 μL aliquots on a round-bottom or flat-bottom 96-well plate on ice. The round bottom plate was labeled for bicinchoninic acid assay (BCA) protein content analysis, and 10 μL of BCA standards was added to extra wells on the plate. Protein quantification was performed using a Pierce BCA Protein Assay Kit as per the manufacturer's instructions. While the BCA plate was in the incubator, the flat-bottom plate was prepared by thawing 1 M catechol on ice and making 100 mM potassium phosphate (pH=8.0) assay buffer. After preparing a kinetic read at 375 nm for 10 minutes with a minimal interval between reads, the catechol was diluted 1:1,000 into the assay buffer and quickly dispensed into a sterile basin, then 200 μL of the solution was pipetted into each well using a multichannel pipette. All data were exported into Excel software (Microsoft) and analyzed for specific activity of each compound and activity relative to VU0038882 controls.
After 219 analogs had been screened, the compounds with the best percent VU0038882 activity were tested again following the same protocol, but with twelve replicates per concentration with data expressed as averages ±the standard deviation (SD). Additionally, the top-performing compounds were tested using the XylE protocol with a concentration gradient to determine their half maximal effective concentration (EC50) values.
Photosensitizer-conjugated antibodies expose bacteria to reactive oxygen species (ROS) externally, but this treatment can be paired with small molecule treatment to generate ROS internally via heme biosynthesis pathway intermediates. To discover new compounds capable of activating CgoX and/or displaying less toxicity to eukaryotic cells, a medicinal chemistry campaign was initatied based on systematic alternation of the '8882 structure. Each new analog was tested for the ability to activate HssRS using the previously described XylE colorimetric assay that employs a reporter construct in which the hrtAB promoter is fused to a xylE reporter gene. […]

Row | SMILES | Specifc Activity @ 30 μM | also measured
1 | Cc1ccc(-c2cc(-c3ccc4ccccc4c3O)n[nH]2)o1 ['9624, 2-(5-(5-Methylfuran-2-yl)-1H-pyrazol-3-yl)naphthalen-1-ol] | 1.152 ± 0.382 nmol/min/mg | 
2 | Cc1c(-c2ccccc2O)n[nH]c1-c1ccco1 [Compound 0394, 2-(5-(Furan-2-yl)-4-methyl-1H-pyrazol-3-yl)phenol] | 0.0287 ± 0.0198 nmol/min/mg | 
3 | Oc1c(-c2cc(-c3cnco3)[nH]n2)ccc2ccccc12 [′0071, 2-(5-(Oxazol-5-yl)-1H-pyrazol-3-yl)naphthalen-1-ol] |  | Specifc Activity (nMol/min*mg), data collected at 10 uM: 1.152 ± 0.263^a nMol/min*mg
4 | CC(C)Nc1cc(-c2ccc3ccccc3c2O)n[nH]1 [′0457, 2-(5-(isopropylamino)-1H-pyrazol-3-yl)naphthalen-1-ol] | 0.5082 ± 0.770 nmol/min/mg | 
5 | Oc1c(-c2n[nH]c(-c3ccco3)n2)ccc2ccccc12 [′0485, 2-(5-(Furan-2-yl)-1H-1,2,4-triazol-3-yl)naphthalen-1-ol] | 1.697 ± 0.335 nmol/min/mg | 
6 | Oc1c(-c2nnc(-c3ccco3)o2)ccc2ccccc12 [′0527, 2-(5-(furan-2-yl)-1,3,4-oxadiazol-2-yl)naphthalen-1-ol] | 0.2270 ± 0.0147 nmol/min/mg | 
7 | Oc1c(-c2n[nH]c3c2CCc2ccoc2-3)ccc2ccccc12 [′1790, 2-(4,5-Dihydro-2H-furo[3,2-g]indazol-3-yl)naphthalen-1-ol] | 4.146 ± 2.397 nmol/min/mg | 
8 | Cc1nn(C)c(C)c1-c1cc(-c2ccc3ccccc3c2O)n[nH]1 [′2069, 2-(1′,3′,5′-trimethyl-1′H,2H-[3,4′-bipyrazol]-5-yl)naphthalen-1-ol] | 10.46 ± 1.54 nmol/min/mg | XylE activity in comparison to '8882 at 10 μM: weaker activity compared to '8882; XylE activity in comparison to '8882 at 30 μM: equivalent; pEC50: 4.55; EC50: 28.5 µM
9 | Oc1cc2ccccc2cc1-c1cc(-c2ccco2)[nH]n1 [′3918, 3-(5-(Furan-2-yl)-1H-pyrazol-3-yl)naphthalen-2-ol] | 0.2543 ± 0.127 nmol/min/mg | 
10 | Nc1ncccc1-c1cc(-c2ccco2)[nH]n1 [′3989, 3-(5-(Furan-2-yl)-1H-pyrazol-3-yl)pyridin-2-amine] | 0.2491 ± 0.2546 nmol/min/mg | 
11 | Oc1ccc(F)cc1-c1cc(-c2ccco2)[nH]n1 [′4082, 4-Fluoro-2-(5-(furan-2-yl)-1H-pyrazol-3-yl)phenol] | 5.884 ± 1.88 nmol/min/mg | 
12 | Oc1cc(F)ccc1-c1cc(-c2ccco2)[nH]n1 [′4083, 5-Fluoro-2-(5-(furan-2-yl)-1H-pyrazol-3-yl)phenol] | 28.76 ± 9.41 nmol/min/mg | XylE activity in comparison to '8882 at 10 μM: activity similar to '8882; XylE activity in comparison to '8882 at 30 μM: activity similar to '8882; pEC50: 4.68; EC50: 20.9 µM
13 | Cn1ccc(-c2cc(-c3ccc4ccccc4c3O)n[nH]2)n1 [′6699, 2-(1-Methyl-1H,2′H-[3,3′-bipyrazol]-5′-yl)naphthalen-1-ol] | 5.138 ± 4.82 nmol/min/mg | 
14 | Cn1ncc2cc(-c3cc(-c4ccc5ccccc5c4O)n[nH]3)ccc21 [′6700, 2-(5-(1-methyl-1H-indazol-5-yl)-1H-pyrazol-3-yl)naphthalen-1-ol] | 24.26 ± 3.69 nmol/min/mg | pEC50: 5.09; EC50: 8.18 µM; XylE activity (ability to activate HssRS) in comparison to '8882: roughly equivalent to '8882
15 | c1ccc(-c2cc(-c3ccco3)[nH]n2)nc1 [′7092, 2-(5-(Furan-2-yl)-1H-pyrazol-3-yl)pyridine] | 0.2374 ± 0.1354 nmol/min/mg | 
16 | Oc1ncccc1-c1cc(-c2ccco2)[nH]n1 [′7268, 3-(5-(Furan-2-yl)-1H-pyrazol-3-yl)pyridin-2-ol] | 0.4793 ± 1.2179 nmol/min/mg | 
17 | Cn1nccc1-c1cc(-c2ccc3ccccc3c2O)n[nH]1 [′8233, 2-(2′-Methyl-2H,2′H-[3,3′-bipyrazol]-5-yl)naphthalen-1-ol] | 0.5053 ± 0.294 nmol/min/mg | 
18 | C#Cc1cc(-c2ccc3ccccc3c2O)n[nH]1 [′9128, 2-(5-Ethynyl-1H-pyrazol-3-yl)naphthalen-1-ol] |  | Specifc Activity (nMol/min*mg), data collected at 10 uM: 0.442 ± 0.089^a nMol/min*mg
19 | Oc1c(-c2cc(-c3cc4ccccc4s3)[nH]n2)ccc2ccccc12 [′9130, 2-(5-(Benzo[b]thiophen-2-yl)-1H-pyrazol-3-yl)naphthalen-1-ol] | 1.012 ± 0.064 nmol/min/mg | 
20 | Oc1c(-c2cc(-c3ccncc3)[nH]n2)ccc2ccccc12 [′9131] | 0.437 ± 0.26 nmol/min/mg | 
21 | Oc1c(-c2cc(-c3ccsc3)[nH]n2)ccc2ccccc12 [′9132, 2-(5-(thiophen-3-yl)-1H-pyrazol-3-yl)naphthalen-1-ol] | 12.82 ± 1.12 nmol/min/mg | pEC50: 4.58; EC50: 26.2 µM; XylE activity (ability to activate HssRS) in comparison to '8882: lost some activity compared with '8882
22 | Oc1c(-c2cc(-c3cc4ccccc4o3)[nH]n2)ccc2ccccc12 [′9134, 2-(5-(Benzofuran-2-yl)-1H-pyrazol-3-yl)naphthalen-1-ol] | 0.130 ± 0.142 nmol/min/mg | 
23 | Oc1c(-c2cc(C3CCCO3)[nH]n2)ccc2ccccc12 (stereo not shown) [′9437, 2-(5-(tetrahydrofuran-2-yl)-1H-pyrazol-3-yl)naphthalen-1-ol] | 0.088 ± 0.041 nmol/min/mg | 
24 | Cc1ccc(-c2cc(-c3ccc4ccccc4c3O)n[nH]2)s1 [′9625, 2-(5-(5-Methylthiophen-2-yl)-1H-pyrazol-3-yl)naphthalen-1-ol] | 8.023 ± 1.065 nmol/min/mg | pEC50: 4.88; EC50: 13.1 µM
25 | Oc1c(-c2cc(-c3cccs3)[nH]n2)ccc2ccccc12 [′9626, 2-(5-(Thiophen-2-yl)-1H-pyrazol-3-yl)naphthalen-1-ol] | 28.86 ± 2.66 nmol/min/mg | XylE activity in comparison to '8882 at 10 μM: performed well; XylE activity in comparison to '8882 at 30 μM: comparable to '8882; pEC50: 4.70; EC50: 19.9 µM
26 | Cc1csc(-c2cc(-c3ccc4ccccc4c3O)n[nH]2)c1 [′9627, 2-(5-(4-Methylthiophen-2-yl)-1H-pyrazol-3-yl)naphthalen-1-ol] | 10.15 ± 3.65 nmol/min/mg | 
27 | Cc1cnccc1-c1cc(-c2ccc3ccccc3c2O)n[nH]1 [′9767, 2-(5-(3-Methylpyridin-4-yl)-1H-pyrazol-3-yl)naphthalen-1-ol] |  | Specifc Activity (nMol/min*mg), data collected at 10 uM: 1.393 ± 0.392^a nMol/min*mg
28 | C/C=C/c1cc(-c2ccc3ccccc3c2O)n[nH]1 [′9768, (E)-2-(5-(Prop-1-en-1-yl)-1H-pyrazol-3-yl)naphthalen-1-ol] | 6.951 ± 0.983 nmol/min/mg | 
29 | Cc1sccc1-c1cc(-c2ccc3ccccc3c2O)n[nH]1 [′9769, 2-(5-(2-Methylthiophen-3-yl)-1H-pyrazol-3-yl)naphthalen-1-ol] | 4.922 ± 1.261 nmol/min/mg | 
